Where “and” joins values, the source holds several entries; their conditions need not be identical. Identical values can stand only once. Ends that are not written are not given here.
Legend:
[1] = tested on: orthotopic 4T1 breast tumors; assay: Intratumoral ICD hallmarks (CRT, ATP, HMGB1); format: in vivo, female BALB/c mice; conditions: individual mice
Protocol: (§1) 4T1 cells (1 × 10^6 cells) were injected into the third mammary fat pad of female BALB/c mice (6–8-week). When tumor volumes reached nearly […] on day 7 after tumor inoculation, mice were randomly divided into 8 groups (n = 8 per group). For four groups without laser irradiation (−), mice were intravenously injected with the following samples: (1) saline on day 7, 14, 21, and 28, (2) P-PS on day 7, 14, 21, and 28, (3) P-BS-PS on day 7, 14, 21, and 28, or (4) P-BS-CM1 on day 7, 14, 21, and 28, followed by P-PS-CM2 on day 8, 15, 22, and 29 (5 mg/kg BS equivalence, CM1:CM2 1:1 mol%, 2.5 mg/kg PS equivalence), respectively. For four groups with laser irradiation (+), mice were treated with the same regimens and irradiated at 650 nm laser (580 mW/cm^2, 5 min) on day 9, 16, 23 and 30. Tumor volumes and mice survivals were recorded every other day. For the investigation of immune response and lung metastasis, 4T1 tumor-bearing female BALB/c mice (6–8-week, tumor volume~100 mm^3) were randomly divided into 8 groups (n = 5 per group) and given three rounds of above treatments. On day 28, lungs and tumors were harvested. lungs were fixed with Bouin’s solution. The pulmonary metastatic nodules were counted and analyzed by hematoxylin-eosin staining. Single-cell suspensions of tumor tissues were stained with anti-CD45-PerCP/Cy5.5 (1:300 dilution) and anti-calreticulin recombinant rabbit monoclonal antibody (1:500 dilution) at 4 °C for 1 h, and then stained with goat anti-rabbit IgG H&L Alexa Fluor® 647 (1:1000 dilution, 4 °C, 45 min), followed by flow cytometry analysis. ATP and HMGB1 concentrations in the supernatant of cell suspension were measured using a luciferase-based ATP assay kit and a mouse HMGB1 ELISA kit, respectively. Single-cell suspensions of tumors were stained with FITC anti-mouse CD3 antibody (1:300 dilution), PerCP/Cyanine5.5 anti-mouse CD4 antibody (1:300 dilution), anti-CD8α-APC (1:300 dilution), and anti-Foxp3-PE (1:300 dilution) for flow cytometry analysis of T cell subtypes (CD8^+ T cells, CD4^+ effector T cells, and Foxp3^+ regulatory T cells), and stained with PE anti-mouse/human CD11b antibody (1:300 dilution) and FITC anti-mouse Ly-6G/Ly-6C (Gr-1) antibody (1:300 dilution) for flow cytometry analysis of MDSCs (CD11b^+Gr1^+). Cytotoxic T cells in tumor tissues were investigated with immunofluorescent staining of IFN-γ and flow cytometry analysis using anti-IFN-γ-PE (1:300 dilution). For CD8-depletion assay, 4T1 tumor-bearing female BALB/c mice (6–8-week, tumor volume~100 mm^3) were randomly divided into 3 groups (n = 8 per group). Mice were intravenously given four doses of P-BS-CM1 on day 7, 14, 21 and 28, combined with P-PS-CM2 on day 8, 15, 22 and 29 (5 mg/kg BS equivalence, CM1:CM2 1:1 mol%, 2.5 mg/kg PS equivalence) in the presence or absence of InvivoMab anti-mouse CD8α (100 μg/mice). Mice were irradiated at 650 nm laser (580 mW/cm^2, 5 min) on day 9, 16, 23 and 30. Tumor volumes and mice survivals were recorded every other day.

4T1 cells [2] = assay: Extracellular ATP release in vitro; format: cell-based, murine
Protocol: (§2) For the investigation of CXCR4 downstream PI3K signals, cells were fixed, permeabilized, and stained with anti-PI 3 kinase p85 alpha recombinant rabbit monoclonal antibody (1:500 dilution, 4 °C, 1 h) and goat anti-rabbit IgG H&L Alexa Fluor® 647 (1:1000 dilution, 4 °C, 30 min), followed by flow cytometry analysis. For the investigation of ICD hallmarks, cells were stained with anti-calreticulin recombinant rabbit monoclonal antibody (1:500 dilution, 4 °C, 1 h) and goat anti-rabbit IgG H&L Alexa Fluor® 647 (1:1000 dilution, 4 °C, 40 min), followed by flow cytometry analysis. ATP levels in the cell culture supernatant were measured following the protocol of luciferase-based ATP assay kit.

4T1 cells [3] = assay: Photosensitizer cell binding (flow cytometry, confocal); format: cell-based, murine
Protocol: For cell binding investigation, 4T1 cells (4 × 10^5 cells/well) were seeded onto 12-well plates (NEST Biotechnology), and treated with i) P-PS for 1 h, ii) P-BS-PS for 1 h, or iii) P-BS-CM1 for 1 h followed by P-PS-CM2 for another 1 h (50 μg/mL BS equivalence, CM1:CM2 1:1 mol%, 25 μg/mL PS equivalence), respectively. Subsequently, cells were washed three times with PBS and observed using flow cytometry and confocal microscopy.

4T1 cells [4] = assay: Calreticulin exposure in vitro (flow cytometry); format: cell-based, murine
Protocol: as §2

[5] = tested on: orthotopic 4T1 breast tumors; assay: IFN-γ+CD8+ T lymphocytes in primary tumors; format: in vivo, female BALB/c mice; conditions: groups marked (+) (laser irradiation); individual mice, n = 5
Protocol: 4T1 cells (1 × 10^6 cells) were injected into the third mammary fat pad of female BALB/c mice (6–8-week). When tumor volumes reached nearly […] on day 7 after tumor inoculation, mice were randomly divided into 8 groups (n = 8 per group). For four groups without laser irradiation (−), mice were intravenously injected with the following samples: (1) saline on day 7, 14, 21, and 28, (2) P-PS on day 7, 14, 21, and 28, (3) P-BS-PS on day 7, 14, 21, and 28, or (4) P-BS-CM1 on day 7, 14, 21, and 28, followed by P-PS-CM2 on day 8, 15, 22, and 29 (5 mg/kg BS equivalence, CM1:CM2 1:1 mol%, 2.5 mg/kg PS equivalence), respectively. For four groups with laser irradiation (+), mice were treated with the same regimens and irradiated at 650 nm laser (580 mW/cm^2, 5 min) on day 9, 16, 23 and 30. Tumor volumes and mice survivals were recorded every other day. For the investigation of immune response and lung metastasis, 4T1 tumor-bearing female BALB/c mice (6–8-week, tumor volume~100 mm^3) were randomly divided into 8 groups (n = 5 per group) and given three rounds of above treatments. […] The pulmonary metastatic nodules were counted and analyzed by hematoxylin-eosin staining. […] ATP and HMGB1 concentrations in the supernatant of cell suspension were measured using a luciferase-based ATP assay kit and a mouse HMGB1 ELISA kit, respectively. […] Tumor volumes and mice survivals were recorded every other day.

[6] = tested on: orthotopic 4T1 breast tumors; assay: PDT efficacy in vivo: primary tumor growth, survival, lung metastasis; parameters: species or system female BALB/c mice
Protocol: as §1

[7] = Hydrodynamic size / size distribution by dynamic light scattering; format: physicochemical; conditions: Malvern Zetasizer Nano ZS90, mean ± SD
Protocol: (§3) The average molecular weight (Mw) and polydispersity (PDI) of the HPMA copolymer conjugates were determined by gel permeation chromatography (GPC) on an AKTA purifier equipment with a Superose 6 10/300 GL analytical column (GE Healthcare, USA) and a differential refraction detector (KNAUER, 2300, Germany). Hydrodynamic sizes and zeta potentials were determined using a Malvern Zetasizer Nano ZS90 equipment (Malvern Instruments Ltd, Malvern, UK). The contents of BS, CM1, and CM2 were determined using a bicinchoninic acid (BCA) protein assay. The PS concentration was determined by ultraviolet-visible (UV-Vis) spectroscopy at its characteristic absorbance peak (660 nm).
To investigate the coiled-coil assembly, varying CM1-to-CM2 ratios (3:1, 1:1, and 1:3) of P-BS-CM1 and P-CM2 were mixed in 10 mM PBS (pH 7.4) at 25 °C for 10 min. The total polymer concentration was kept constant at 10 mg/mL. Circular dichroism spectra, size distribution, and rheological properties of P-BS-CM1, P-CM2, and their mixture were measured. The surface morphology of P-BS-CM1 and the mixture (P-BS-CM1 + P-CM2) was observed using scanning electron microscopy. Additionally, for the FRET assay, CM1-to-CM2 equimolar of P-BS-CM1-Cy5 and P-CM2-Cy3 were mixed in 10 mM PBS (pH 7.4) at 25 °C for 10 min. Fluorescent spectra of P-BS-CM1-Cy5, P-CM2-Cy3, and the mixture (P-BS-CM1-Cy5+P-CM2-Cy3) were recorded at the Cy3 excitation wavelength of 550 nm.

ζ-potential (Zetasizer) = format: physicochemical; conditions: Malvern Zetasizer Nano ZS90; mean ± SD
Protocol: as §3

[8] = groups marked (+) (laser irradiation), n = 5
[9] = groups marked (-) (no laser irradiation), n = 5

P-BS-PS: BS-multivalently-modified polymer-PS conjugate (LGASWHRPDKCCLGYQKRPLPA; not fully specified (residues 11, 12); cysteine pairing not given here; also: chlorin e6 photosensitizer on polymer)
ATP per tumor weight [1, 8]: 345.1 µmol/g and 303.2 µmol/g and 231.5 µmol/g and 287.7 µmol/g and 298.1 µmol/g | CRT expression in tumor (MFI) [1, 8]: 34335.1 MFI and 38552.2 MFI and 29253.6 MFI and 35944.5 MFI and 36607.6 MFI | HMGB1 per tumor weight [1, 8]: 80.13 ng/g and 70.54 ng/g and 88.61 ng/g and 92.56 ng/g and 89.1 ng/g | ATP per tumor weight [1, 9]: 191.5 µmol/g and 151.37 µmol/g and 120.13 µmol/g and 106.4 µmol/g and 205.73 µmol/g | HMGB1 per tumor weight [1, 9]: 19.76 ng/g and 15.34 ng/g and 14.57 ng/g and 18.95 ng/g and 19.22 ng/g | CRT expression in tumor (MFI) ([1]; groups marked (-) (no laser irradiation), n = 5, one line each): 27343 MFI and 22321 MFI and 19321 MFI and 23431 MFI and 20197 MFI | Extracellular ATP (4T1 cells [2]; replicate 1): 52.31 nM | Extracellular ATP (4T1 cells [2]; replicate 2): 40.65 nM | Extracellular ATP (4T1 cells [2]; replicate 3): 40.42 nM | Photosensitizer cell binding (fluorescence, Fig. 7a) (4T1 cells [3]; replicate 1): 507603 | Photosensitizer cell binding (fluorescence, Fig. 7a) (4T1 cells [3]; replicate 2): 505554 | Photosensitizer cell binding (fluorescence, Fig. 7a) (4T1 cells [3]; replicate 3): 480665 | CRT positive cells (%) (4T1 cells [4]; replicate 1): 20.53% | CRT positive cells (%) (4T1 cells [4]; replicate 2): 18.21% | CRT positive cells (%) (4T1 cells [4]; replicate 3): 17.1% | IFN-γ+ cells (%) in tumor-infiltrating CD8+ cells [5]: 13.27% and 14.75% and 15.74% and 11.82% and 15.65% | Number of lung metastatic nodules ([6]; (+) with laser, mouse 1 of 5): 11 | Number of lung metastatic nodules ([6]; (+) with laser, mouse 2 of 5): 13 | Number of lung metastatic nodules ([6]; (+) with laser, mouse 3 of 5): 6 | Number of lung metastatic nodules ([6]; (+) with laser, mouse 4 of 5): 9 | Number of lung metastatic nodules ([6]; (+) with laser, mouse 5 of 5): 7 | Number of lung metastatic nodules ([6]; (-) no laser, mouse 1 of 5): 24 | Number of lung metastatic nodules ([6]; (-) no laser, mouse 2 of 5): 27 | Number of lung metastatic nodules ([6]; (-) no laser, mouse 3 of 5): 22 | Number of lung metastatic nodules ([6]; (-) no laser, mouse 4 of 5): 23 | Number of lung metastatic nodules ([6]; (-) no laser, mouse 5 of 5): 21 | Size [7]: 22.4±1.4 nm | ζ-potential (ζ-potential (Zetasizer)): -18.24±2.31 mV
